Experiments:
6-OHDA-lesioned rats = experiment: Locomotor activity of juvenile rats with neonatal 6-OHDA lesions (ADHD model); format: in vivo, Sprague-Dawley rat; conditions: for effect on lesion-induced hyperactivity (dose dependence): i.p., low and high dosage; for effect on lesion-induced hyperactivity (dose dependence) / motor activity in lesioned rats: daytime; for hyperactivity in lesioned rats with psychostimulants: daytime 10:00-16:00 h, dose not given
Description: For example, behavioral studies of juvenile rats with neonatal 6-hydroxydopamine (6-OHDA) lesions, as is described below, can be used to screen drugs in order to identify candidate drugs for use in the method of the invention. […] As a result, juvenile rats with neonatal 6-OHDA lesions are accepted as a laboratory model for ADHD.
On postnatal day (PD) 5, male Sprague-Dawley rat pups randomly received intracisternal injections of vehicle (“sham-lesioned”) (0.9% NaCl containing 0.1% ascorbic acid) or 6-OHDA hydrobromide (“lesioned”) (100 μg free base) into the brain under hypothermal anesthesia at 45 min after pretreatment with desipramine hydrochloride (20 mg/kg free base) injected subcutaneously (s.c.).
Behavioral effects of neonatal lesions were examined by monitoring locomotor activity at PD 21-30 in a novel environment to provoke exploratory activity. Rats were maintained under a 12-h artificial daylight/dark schedule (on, 07:00-19:00 h), with free access to tap-water and standard rat chow. Motor activity was automatically monitored for 90 min between PD 21 and 30, with a computer-controlled photobeam activity monitoring system (San Diego Instruments, San Diego, Calif.). […] […] Sessions were separated by 48 hours. […] Breaking of consecutive photobeams was scored as locomotion.

D2-like receptors = experiment: Autoradiography of D2-like receptor binding in forebrain after neonatal lesion; format: in vivo, rat
Method: (§1) On postnatal day (PD) 5, male Sprague-Dawley rat pups randomly received intracisternal injections of vehicle (“sham-lesioned”) (0.9% NaCl containing 0.1% ascorbic acid) or 6-OHDA hydrobromide (“lesioned”) (100 μg free base) into the brain under hypothermal anesthesia at 45 min after pretreatment with desipramine hydrochloride (20 mg/kg free base) injected subcutaneously (s.c.). Lesions of DA in forebrain tissue sections were verified by quantifying DA transporter binding with [^3H]GBR-12935 (1-[2-(diphenylmethoxy)ethyl]-4-(3-phenylpropyl)piperazine) by computed autoradiography at the completion of experiments as an indication of loss of DA nerve terminals in forebrain.
(§2) Rats were sacrificed 2 days after the last behavioral testing for autoradiographic analysis of DA receptor density. Frozen coronal brain sections (10 μm) were prepared in a cryostat at −17° C., thaw-mounted on gelatin-coated microscopic slides and stored at −80° C. until quantitative autoradiographic assays. D2-like receptor binding was assayed with 1 nM [^3H]nemonapride in the presence of 0.5 μM 1,3-ditolylguanidine and 0.1 μM pindolol to block 5-HT1A sites in the brain tissue. Nonspecific binding was determined with 10 μM […]. […] Nonspecific binding was determined with 1 μM cis-flupenthixol.

D4 receptors [1] = experiment: Autoradiography of D4 receptor binding in forebrain after neonatal lesion; format: in vivo, rat
Method: as §1, §2

[2] = tested on: non-dopaminergic receptors; conditions: except 5-HT1A and 5-HT2A; cited from earlier work
D4 receptors [3] = molecular target: T1, D4 receptors (Homo sapiens, UniProt P21917); conditions: cited from earlier work
T1 sequence (P21917 1-419): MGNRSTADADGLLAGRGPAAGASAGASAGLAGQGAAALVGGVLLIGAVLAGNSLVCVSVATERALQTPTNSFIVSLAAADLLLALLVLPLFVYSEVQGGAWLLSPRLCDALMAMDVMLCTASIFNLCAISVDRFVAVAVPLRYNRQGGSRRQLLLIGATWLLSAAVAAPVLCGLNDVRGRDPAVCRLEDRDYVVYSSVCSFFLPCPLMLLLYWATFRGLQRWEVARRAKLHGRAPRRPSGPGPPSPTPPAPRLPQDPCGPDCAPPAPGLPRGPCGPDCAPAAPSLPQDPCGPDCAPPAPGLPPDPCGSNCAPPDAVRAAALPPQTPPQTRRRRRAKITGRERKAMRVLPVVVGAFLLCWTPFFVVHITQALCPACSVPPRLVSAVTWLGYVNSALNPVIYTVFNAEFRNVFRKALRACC

sham-lesioned rats = experiment: Locomotor activity of sham-lesioned control rats; format: in vivo, Sprague-Dawley rat; conditions: daytime 10:00-16:00 h
Method: as §1
Behavioral effects of neonatal lesions were examined by monitoring locomotor activity at PD 21-30 in a novel environment to provoke exploratory activity. Rats were maintained under a 12-h artificial daylight/dark schedule (on, 07:00-19:00 h), with free access to tap-water and standard rat chow. Motor activity was automatically monitored for 90 min between PD 21 and 30, with a computer-controlled photobeam activity monitoring system (San Diego Instruments, San Diego, Calif.). […] Breaking of consecutive photobeams was scored as locomotion.

**Q.** With `Fc1ccc2[nH]c(CN3CCN(c4ccccn4)CC3)cc2c1` [CP-226,269] as the compound, how does the “effect on lesion-induced hyperactivity (dose dependence)” value (6-OHDA-lesioned rats) read?
**A.** dose-dependent exacerbation

**Q.** With `CC[C@@H](CO)NC(=O)[C@@H]1C=C2c3cccc4c3c(cn4C)C[C@H]2N(C)C1` [methysergide] as the compound, how does the “effect of methysergide alone on lesion-induced hyperactivity” value (6-OHDA-lesioned rats; 2 mg/kg i.p., 30 min prior to testing) read?
**A.** failed to affect

**Q.** And the “effect of methysergide pretreatment on motor responses to subsequent CP-293,019” value (6-OHDA-lesioned rats; methysergide 2 mg/kg i.p. 30 min before CP-293,019 30 mg/kg)?
**A.** did not affect

**Q.** What does the source list for `NCCc1cc(O)c(O)cc1O` [6-OHDA, 6-hydroxydopamine]?
**A.** increase of D2-like receptors versus sham (D2-like receptors; lateral CPu): 16.6%; increase of D2-like receptors versus sham (D2-like receptors; medial CPu): 18.3%; increase of D4 receptor binding versus sham (D4 receptors [1]; lateral CPu): 40.3%; increase of D4 receptor binding versus sham (D4 receptors [1]; medial CPu): 35.2%

**Q.** Which results are given for `Fc1ccc(OCC2CCC3CN(c4ncc(F)cn4)CCN3C2)cc1` (stereo not drawn) [CP-293,019, 7R,S-(4-fluoro-phenoxymethyl)-2-(5-fluoro-pyrimidin-2-yl)-octahydropyrido[1,2-α]pyrazine]?
**A.** motor activity in lesioned rats (6-OHDA-lesioned rats; 30 mg/kg i.p., 90 min session): indistinguishable from sham-lesioned controls; nocturnal hyperactivity in lesioned rats (6-OHDA-lesioned rats; 30 mg/kg, nocturnal 22:00-04:00 h): completely reversed; inhibition at 10 mg/kg (6-OHDA-lesioned rats; Rattus norvegicus, ip, read-out: inhibition of motor activity in lesioned rats): ~40%; effect on lesion-induced hyperactivity (dose dependence) (6-OHDA-lesioned rats): dose-dependent mitigation; affinity for non-dopaminergic receptors [2]: negligible affinity; potency at D4 receptors relative to D2 or other DA receptors (D4 receptors [3]): more than 1000 times; selectivity and kind of action at D4 receptors (D4 receptors [3]): highly D4 receptor-selective, full antagonist

**Q.** What does the source list for `Clc1ccc(N2CCN(Cc3c[nH]c4ncccc34)CC2)cc1` [L-745,870, 3-{[4-(4-chlorophenyl)piperazin-1-yl]methyl}-1H-pyrrolo[2,3-b]pyridine]?
**A.** motor activity in lesioned rats (6-OHDA-lesioned rats; 15 mg/kg i.p.): reversed to a level similar to that found in control rats; selectivity and kind of action at D4 receptors (D4 receptors [3]): highly selective fill antagonist

**Q.** What does the source list for `CC(N)Cc1ccccc1` (single isomer, unassigned; (+)) [(+)-amphetamine]?
**A.** hyperactivity in lesioned rats with psychostimulants (6-OHDA-lesioned rats): reduced; motor activity in sham-lesioned controls (sham-lesioned rats): greatly increased motor activity

**Q.** With `COC(=O)C(c1ccccc1)C1CCCCN1` (racemic) [(±)-methylphenidate] as the compound, how does the “hyperactivity in lesioned rats with psychostimulants” value (6-OHDA-lesioned rats) read?
**A.** reduced

**Q.** And the “motor activity in sham-lesioned controls” value (sham-lesioned rats)?
**A.** greatly increased motor activity

Source: US6747029B2, “Dopamine D4 receptor antagonists as treatment for attention deficit-hyperactivity disorder” (priority 2001, dated 2004)
